Reference: patent US5436273A, “Psychoactive propargylamine derivatives used in the treatment of anxiety, psychotic states or aggression” (Lowchol Scientific, Inc., priority 1993, dated 1995)
Entries after “also recorded” stand apart in the source; their conditions may differ. Like-named read-outs stand apart in the source and are kept apart here.

Experiments:
[1] = Plasma concentration in combative mice as a function of time; assay type: in vivo; details: 10 mg/kg i.p.
Method: A calibration curve is established using mouse blood plasma. Two samples are used for each concentration. The method used is as follows.
200 μl of plasma are taken and denaturated with 400 μl of acetonitrile. 500 μl of the clear liquid is taken.
A derivative is made with 50 μl of orthophthalaldehyde (0.05M) in a test tube and 25 μl of the solution is injected into a high performance liquid chromatography apparatus after 30 minutes.
3-Amino-4-pentyne is used as standard.
The following equation describes the calibration curve: […]
The concentration of compound N^o 3 in the plasma is given by the following equation: [formula] B. Evaluation in Vivo
The pharmacokinetic profile is established in combative mice.
(§1) The mice are placed together, in pairs, for 5 minutes. This pairing is performed 10, 25, 55, 85 and 115 minutes after the administration of compound N^o 3. One minute after each of the 5 minute periods of placing the animals together, three pairs of animals are anesthetized with ether and guillotined in order to determine the concentration of compound N^o 3 in the plasma. The plasma sample is prepared by centrifugation (16,000 G) of 800 μl of blood to which 50 μl of EDTA Na4 (0.1M) is added. The inhibition of aggressive behavior at the different times in which the animals are placed together and the number of pairs evaluated is shown in the following Table: […]

[2] = Effect on body temperature in mice; assay type: in vivo, CD #1 mice; details: for Temp. Difference from Control: one hour
Method: 9. Effect on Body Temperature in Mice
Female CD #1 mice (20-30 g) are used. Rectal temperature is recorded before and one hour after s.c. administration of the compound to be studied (N=8/doses×4 doses). The solvent used is sterile water for intravenous injection.
The results which are reported in Table 9 are expressed in terms of the variation of temperature for different doses. Buspirone was tested on Sprague Dawley rats.

[3] = system: isolation induced aggressive behavior in mice; assay: Inhibition of isolation induced fighting behavior in mice; assay type: in vivo, CD #1 mice; details: i.p.
Method: 1. Inhibition of Isolation Induced Fighting Behavior in Mice
After this period of confinement, the animals usually develop a marked intraspecific aggressive behavior when they are placed in the same cage.
The compound to be studied is administered i.p. to the selected groups (N=8 pairs/dose×5 doses) and the aggressive behavior is tested again 30 minutes later. […] A one week washout period is allowed between treatments.

[4] = Vapor pressure at room temperature; assay type: physicochemical; details: free base
[5] = system: spontaneous motor activity in mice; assay: Inhibition of spontaneous motor activity in mice; assay type: in vivo, CD #1 mice; details: for ED50: Mus musculus, ip, 0.5 h, i.p., 30 minutes
Method: 4. Inhibition of Spontaneous Motor Activity in Mice
Female CD #1 mice (20-30 g) are used for this experiment. The effect of the compound to be studied on spontaneous activity was evaluated by an automated […] XYZ system. This system allows the simultaneous quantification of the following parameters:
number of stereotypic movements;
number of vertical movements;
number of clockwise revolutions; and
number of counterclockwise revolutions.
Two animals are studied simultaneously, one treated and one control. After a 2 hour period of acclimatization to the room, a first activity count of 10 minutes duration is perfomed. The compound to be studied is then administered i.p. and the spontaneous activity is reevaluated 30 minutes later over a period of 10 minutes.

[6] = system: aggressive behavior of combative mice; assay: Persistence of antiaggressive effect; assay type: in vivo; details: 10 mg/kg i.p. daily for five days, FIG. 3
Source text: 12. Persistence of Antiaggressive Effect

[7] = system: righting reflex / ethanol narcosis in mice; assay: Potentiation of sleeping time induced by ethanol in mice; assay type: in vivo, CD #1 mice; details: for percentage of animals displaying a loss of the righting reflex: with ethanol
Method: 7. Potentiation of Sleeping Time Induced by Ethanol in Mice
This test was done with male CD #1 mice of 25-35 g. The mice are injected intraperitoneally (8 mice per dose). A subhypnotic dose of ethanol (12 ml/kg of 50% ethanol solution) is administered orally 30 minutes later.
The loss of the righting reflex is evaluated, for each animal, 30 minutes after the administration of the alcohol. It is considered that there is a potentialization of ethanol narcosis if the righting time exceeded 30 seconds.
The results which are reported in Table 7 are expressed in terms of the percentage of animals displaying a loss of the righting reflex versus the administered dose. Chlorpromazine (5 mg/kg i.p.) is used as a standard.

Acute toxicity test = details: mouse, in vivo, ip
Method: CD #1 mice (20-30 g) are used for this test. The animals are individualy housed in glass beakers for a 2 hour period of acclimatization without food and water.

[8] = system: exploratory behavior in rats; assay: Inhibition of exploratory behavior in rats (hole poking); assay type: in vivo, Sprague-Dawley rats; details: rats
Method: 8. Inhibition of Exploratory Behavior in Rats (Hole Poking).
This test is done with Sprague-Dawley male rats of about 300 g. Activity is evaluated with a […] XYZ activity cage connected to a […] […] DCM-4. A perforated plate (16 holes of 2-5 cm diameter) is placed in the enclosure and on the activity case to register vertical activity. The number of times the rat placed his snout into the holes during a 10 minute period is recorded. The test was started 30 minutes after the interperitoneal injection of the compound to be studied.
The results which are reported in Table 8 are expressed in terms of the dose required to diminish by 50% the exploratory behavior, with reference to animals injected with the carrier only. Diazepam and buspirone are used as standards.

in vivo = details: mouse, ip
[9] = system: aggressive behavior in combative mice; assay: Inhibition of aggressive behavior in combative mice at various times (correlation with plasma concentration); assay type: in vivo; details: 10 mg/kg i.p.; for inhibition at 10 mg/kg: Mus musculus, ip
Method: as §1

Question: Which results are given for `C#CC(C)N` (centres unmarked) [Compound 3, 2-Amino-3-butyne]?
Answer: elimination / plasma level (in words) ([1]; FIG. 1): elimination of compound N^o 3 is very rapid; also recorded: not detectable, by the method used, 90 minutes after the injection; concentration at […] ([1]; mouse, plasma, ip, 15 min, N = 6, read-out: plasma concentration ± S.E.): 4800 ± 400 µM; concentration at 0.5 h ([1]; mouse, plasma, ip, 30 min, N = 6, read-out: plasma concentration ± S.E.): 2000 ± 200 µM; concentration at 1 h ([1]; mouse, plasma, ip, 60 min, N = 5, read-out: plasma concentration ± S.E.): 900 ± 200 µM; concentration at 1.5 h ([1]; mouse, plasma, ip, 90 min, N = 6, read-out: plasma concentration ± S.E.): < 5 µM; concentration at 2 h ([1]; mouse, plasma, ip, 120 min, N = 6, read-out: plasma concentration ± S.E.): < 5 µM; Temp. Difference from Control ([2]; dose 10, s.c.): -2.6; Temp. Difference from Control ([2]; dose 30, s.c.): -2.5; Temp. Difference from Control ([2]; dose 100, s.c.): -4.1; hypothermia (in words) ([2]; s.c.): slight, transient hypothermia comparable to that induced by buspirone; ED50 ([3]; Mus musculus, ip, 0.5 h, read-out: ED50 (dose that suppressed aggressive behavior in 50% of the animals), 30 minutes after administration, probit analysis): 8 mg/kg; inhibition of aggressive behavior (in words) ([3]; mice): particularly potent inhibitors; vapor pressure (in words) [4]: high vapor pressure at room temperature; inhibition of spontaneous motor activity (in words) [5]: more active than buspirone in mice; ED50 ([5]; read-out: ED50, clockwise revolutions): 3.3 ± 1.6 mg/kg; ED50 ([5]; read-out: ED50, counterclockwise revolutions): 2.7 ± 1.9 mg/kg; ED50 ([5]; read-out: ED50, horizontal activity): 4.3 ± 2.2 mg/kg; ED50 ([5]; read-out: ED50, movement time): 8.1 ± 4.5 mg/kg; ED50 ([5]; read-out: ED50, number of movements): 11.8 ± 5.9 mg/kg; ED50 ([5]; read-out: ED50, number of stereotypic movements): 5.5 ± 2.2 mg/kg; ED50 ([5]; read-out: ED50, stereotypy time): 3.8 ± 1.6 mg/kg; ED50 ([5]; read-out: ED50, total distance): 5.5 ± 3.4 mg/kg; ED50 ([5]; read-out: ED50, vertical activity): 2.5 ± 1.2 mg/kg; ED50 ([5]; read-out: ED50, vertical movements): 3.2 ± 1.6 mg/kg; ED50 ([5]; read-out: ED50, vertical time): 2.6 ± 1.5 mg/kg; persistence of inhibitory effect on aggressive behavior (in words) [6]: also persists when the compound is administered on a daily basis; percentage of animals displaying a loss of the righting reflex ([7]; 10 mg/kg i.p.): 50%; percentage of animals displaying a loss of the righting reflex ([7]; 30 mg/kg i.p.): 50%; percentage of animals displaying a loss of the righting reflex ([7]; 100 mg/kg i.p.): 25%; potentiation of ethanol (in words) ([7]; subhypnotic dose of ethanol, mice): active at t = 30 min; also recorded: potentiate the effect of a subhypnotic effect dose of ethanol; LD50 (Acute toxicity test): 1370 mg/kg; ED50 ([8]; Rattus norvegicus, ip, 0.5 h, i.p., 30 minutes, read-out: dose required to diminish by 50% the exploratory behavior): 4.6 ± 2.6 mg/kg; inhibition of exploratory behavior (in words) [8]: more potent, in this respect, than diazepam but they rapidly lose their ability to produce this effect after the first administration; TD50 at 0.5 h (in vivo): 720 mg/kg; antiaggressive activity over time (in words) [9]: noticeable activity after a few minutes; also recorded: activity is maximal when the plasma concentration is no longer detectable; time of maximum antiaggressive activity [9]: 60 min; inhibition at 10 mg/kg ([9]; 0.5 h, 30 min, 12 pairs): 87.5%; inhibition at 10 mg/kg ([9]; 1 h, 60 min, 9 pairs): 100%; inhibition at 10 mg/kg ([9]; 1.5 h, 90 min, 3 pairs): 100%; inhibition at 10 mg/kg ([9]; 2 h, 120 min, 3 pairs): 100%; inhibition at 10 mg/kg ([9]; 15 min, 15 pairs): 75%
